{
  "source": "paper PMC10222328",
  "about": "(Pharmaceuticals, 2023)",
  "key": {"5-LOX": {"target": "T1, 5-LOX (Homo sapiens, UniProt P09917)", "T1 construct": "purchased Abcam, UK", "T1 sequence (P09917 1-674)": "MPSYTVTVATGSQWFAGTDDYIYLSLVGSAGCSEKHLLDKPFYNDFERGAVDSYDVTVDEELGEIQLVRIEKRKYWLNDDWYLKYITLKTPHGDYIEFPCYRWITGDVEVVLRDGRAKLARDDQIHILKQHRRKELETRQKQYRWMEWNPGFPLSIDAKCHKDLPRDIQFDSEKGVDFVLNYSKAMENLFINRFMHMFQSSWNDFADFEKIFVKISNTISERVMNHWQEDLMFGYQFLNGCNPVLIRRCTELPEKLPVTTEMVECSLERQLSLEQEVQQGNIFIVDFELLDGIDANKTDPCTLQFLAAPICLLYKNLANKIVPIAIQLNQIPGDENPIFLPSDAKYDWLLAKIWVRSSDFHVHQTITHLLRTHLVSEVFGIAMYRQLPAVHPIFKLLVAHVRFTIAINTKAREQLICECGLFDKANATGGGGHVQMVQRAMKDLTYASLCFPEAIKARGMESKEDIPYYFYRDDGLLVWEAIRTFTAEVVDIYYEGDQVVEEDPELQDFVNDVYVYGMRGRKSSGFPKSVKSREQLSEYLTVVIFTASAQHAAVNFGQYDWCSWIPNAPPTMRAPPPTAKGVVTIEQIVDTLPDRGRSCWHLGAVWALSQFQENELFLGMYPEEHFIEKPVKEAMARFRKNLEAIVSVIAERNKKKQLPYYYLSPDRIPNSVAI", "test": "Fluorometric 5-LOX inhibitor screening kit", "type": "biochemical", "settings": "at 10 µM; mean ± standard error of two measurements; read-out: 5-LOX Percent of Inhibition", "method": "(§1) COX-2 and 5-LOX inhibitory activities were tested using fluorometric COX-2 and 5-LOX inhibitor screening kits (Abcam, UK). These assays are based on the fluorometric detection of Prostaglandin G2 (a product generated by the COX enzyme) or on the fluorometric detection of intermediate generated by the 5-LOX enzyme. The experiments were conducted according to the manufacturers’ instructions.\n(§2) For the determination of COX-2 inhibitory activity, tested compounds were dissolved in DMSO (5 mM stock solutions) and then diluted with the same solvent to obtain test solutions. Test solutions were further diluted 5X with COX assay buffer (2 µL of test solution and 8 µL COX assay buffer). […] Solvent control (SC) was prepared by adding 2 µL DMSO and 8 µL COX assay buffer, while sample (S) and enzyme control (EC) were prepared by adding 10 µL of diluted test solution and COX assay buffer, respectively, into assigned wells. For the determination of 5-LOX inhibitory activity, tested compounds were also dissolved in DMSO to prepare stock solutions with the same concentration (5mM), which were then diluted with the same solvent to obtain test solutions. Subsequently, test solutions were added to corresponding wells (2 µL)."}, "[1]": {"test_system": "carrageenan-induced rat paw edema", "test": "Carrageenan-induced rat paw edema model", "type": "in vivo, Wistar albino rats", "settings": "for Rat paw thickness: mean ± SD; for inhibition in vivo at 2.5 mg/kg / inhibition in vivo at 5 mg/kg / inhibition in vivo at 10 mg/kg: Rattus norvegicus, po", "method": "In vivo assessment of anti-inflammatory activity of compounds 1–7 was conducted in the carrageenan-induced rat paw edema model. Inflammation in all rats was induced by an intraplantar injection of […] of 0.5% carrageenan saline in the left hind paw. Two hundred male Wistar albino rats (180–210 g) were divided into seven experimental (n = 168 rats, 8 rats per subgroup) and two control groups (n = 32 rats, 8 rats per subgroup).\nExperimental groups involved rats that received compounds 1–7, and they were divided into three subgroups: rats received compounds 1–7 per os in three doses (2.5 mg/kg, 5 mg/kg, and 10 mg/kg) dissolved in 1% DMSO for 60 min before inducing inflammation.\nIn order to quantify the anti-inflammatory effect, the thickness of the left paw tissue of each rat was measured at the following time intervals: immediately before inducing inflammation (moment 0) and 1, 2, 3, and 4 h (moments 1, 2, 3, and 4) after inflammation. Tissue thickness was measured in the middle of the rat paw using a digital vernier caliper (Aerospace, Beijing, China)."}, "COX-2": {"target": "T2, COX-2 (Homo sapiens, UniProt P35354)", "T2 construct": "purchased Abcam, UK", "T2 sequence (P35354 18-604)": "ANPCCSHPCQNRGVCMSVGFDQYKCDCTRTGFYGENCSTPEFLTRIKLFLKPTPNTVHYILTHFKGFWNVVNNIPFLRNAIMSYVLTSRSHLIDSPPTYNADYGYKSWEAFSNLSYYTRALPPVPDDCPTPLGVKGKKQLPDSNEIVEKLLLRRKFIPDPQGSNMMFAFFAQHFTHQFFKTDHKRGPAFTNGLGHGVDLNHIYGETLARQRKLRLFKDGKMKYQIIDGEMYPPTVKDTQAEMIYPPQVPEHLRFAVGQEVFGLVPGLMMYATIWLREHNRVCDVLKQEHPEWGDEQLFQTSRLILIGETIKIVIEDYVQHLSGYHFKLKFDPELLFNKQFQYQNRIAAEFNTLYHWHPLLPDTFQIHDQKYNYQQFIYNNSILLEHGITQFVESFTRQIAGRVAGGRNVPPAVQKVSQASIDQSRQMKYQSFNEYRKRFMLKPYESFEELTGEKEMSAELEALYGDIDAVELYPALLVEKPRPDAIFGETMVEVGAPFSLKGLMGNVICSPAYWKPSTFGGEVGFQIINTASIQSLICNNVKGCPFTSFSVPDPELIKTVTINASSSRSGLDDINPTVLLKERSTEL", "test": "Fluorometric COX-2 inhibitor screening kit", "type": "biochemical", "method": "as §1, §2"}, "COX-1": {"test_system": "COX-1", "settings": "COX-1 over COX-2; cited from earlier work"}},
  "data": [
    {"smiles": "CC(c1cc2ccccc2s1)N(O)C(N)=O", "note": "(stereo not shown) [Zileuton, reference compound]", "values": [
      {"measurement": "inhibition at 10 µM", "setting": "5-LOX", "result": "64.85 ± 0.39", "unit": "%"}
    ]},
    {"smiles": "COc1ccc2cc([C@H](C)C(=O)O)ccc2c1", "note": "[Naproxen, reference compound]", "values": [
      {"measurement": "Rat paw thickness", "setting": "[1]; 2.5 mg/kg per os, 1 h after carrageenan", "result": "6.20 ± 0.10", "unit": "mm"},
      {"measurement": "Rat paw thickness", "setting": "[1]; 2.5 mg/kg per os, 2 h after carrageenan", "result": "5.87 ± 0.12", "unit": "mm"},
      {"measurement": "Rat paw thickness", "setting": "[1]; 2.5 mg/kg per os, 3 h after carrageenan", "result": "5.60 ± 0.17", "unit": "mm"},
      {"measurement": "Rat paw thickness", "setting": "[1]; 2.5 mg/kg per os, 4 h after carrageenan", "result": "5.03 ± 0.25", "unit": "mm"},
      {"measurement": "Rat paw thickness", "setting": "[1]; 5.0 mg/kg per os, 1 h after carrageenan", "result": "5.87 ± 0.23", "unit": "mm"},
      {"measurement": "Rat paw thickness", "setting": "[1]; 5.0 mg/kg per os, 2 h after carrageenan", "result": "5.37 ± 0.31", "unit": "mm"},
      {"measurement": "Rat paw thickness", "setting": "[1]; 5.0 mg/kg per os, 3 h after carrageenan", "result": "5.07 ± 0.35", "unit": "mm"},
      {"measurement": "Rat paw thickness", "setting": "[1]; 5.0 mg/kg per os, 4 h after carrageenan", "result": "4.83 ± 0.21", "unit": "mm"},
      {"measurement": "Rat paw thickness", "setting": "[1]; 10.0 mg/kg per os, 1 h after carrageenan", "result": "5.73 ± 0.20", "unit": "mm"},
      {"measurement": "Rat paw thickness", "setting": "[1]; 10.0 mg/kg per os, 2 h after carrageenan", "result": "5.40 ± 0.40", "unit": "mm"},
      {"measurement": "Rat paw thickness", "setting": "[1]; 10.0 mg/kg per os, 3 h after carrageenan", "result": "5.20 ± 0.30", "unit": "mm"},
      {"measurement": "Rat paw thickness", "setting": "[1]; 10.0 mg/kg per os, 4 h after carrageenan", "result": "4.80 ± 0.40", "unit": "mm"},
      {"measurement": "inhibition in vivo at 2.5 mg/kg", "setting": "[1]; 1 h, 2.5 mg/kg per os, 1 h after carrageenan", "result": 18.9, "unit": "%"},
      {"measurement": "inhibition in vivo at 5 mg/kg", "setting": "[1]; 1 h, 5.0 mg/kg per os, 1 h after carrageenan", "result": 27.1, "unit": "%"},
      {"measurement": "inhibition in vivo at 10 mg/kg", "setting": "[1]; 1 h, 10.0 mg/kg per os, 1 h after carrageenan", "result": 35.4, "unit": "%"},
      {"measurement": "inhibition in vivo at 2.5 mg/kg", "setting": "[1]; 2 h, 2.5 mg/kg per os, 2 h after carrageenan", "result": 24.9, "unit": "%"},
      {"measurement": "inhibition in vivo at 5 mg/kg", "setting": "[1]; 2 h, 5.0 mg/kg per os, 2 h after carrageenan", "result": 41.8, "unit": "%"},
      {"measurement": "inhibition in vivo at 10 mg/kg", "setting": "[1]; 2 h, 10.0 mg/kg per os, 2 h after carrageenan", "result": 43.3, "unit": "%"},
      {"measurement": "inhibition in vivo at 2.5 mg/kg", "setting": "[1]; 3 h, 2.5 mg/kg per os, 3 h after carrageenan", "result": 25.1, "unit": "%"},
      {"measurement": "inhibition in vivo at 5 mg/kg", "setting": "[1]; 3 h, 5.0 mg/kg per os, 3 h after carrageenan", "result": 47.1, "unit": "%"},
      {"measurement": "inhibition in vivo at 10 mg/kg", "setting": "[1]; 3 h, 10.0 mg/kg per os, 3 h after carrageenan", "result": 45.2, "unit": "%"},
      {"measurement": "inhibition in vivo at 2.5 mg/kg", "setting": "[1]; 4 h, 2.5 mg/kg per os, 4 h after carrageenan", "result": 44.8, "unit": "%"},
      {"measurement": "inhibition in vivo at 5 mg/kg", "setting": "[1]; 4 h, 5.0 mg/kg per os, 4 h after carrageenan", "result": 49.4, "unit": "%"},
      {"measurement": "inhibition in vivo at 10 mg/kg", "setting": "[1]; 4 h, 10.0 mg/kg per os, 4 h after carrageenan", "result": 56.3, "unit": "%"},
      {"measurement": "IC50", "setting": "COX-2", "result": "200 ± 20", "unit": "nM"},
      {"measurement": "inhibition at 10 µM", "setting": "COX-2; read-out: COX-2 Percent of Inhibition", "result": "72.2 ± 1.4", "unit": "%"},
      {"measurement": "Selectivity for COX-1", "setting": "COX-1", "result": "approximately five"}
    ]}
  ]
}
